Biological target: T1, intracellular kinase domain of human IGF-1R (GST fusion protein) (Homo sapiens, UniProt P08069)
T1 construct: IGFRK and IRK enzyme used for the assay was intracellular kinase domain of human IGF-1R; GST; made in house
Assay: In vitro IGF-1R kinase assay (HTRF)
Type: biochemical
Details: ATP 20 μM, IGFRK 0.25 nM
Experimental: The in vitro kinase assays using IGF-1R and IR kinase GST fusion proteins were conducted using a homogeneous time-resolved fluorescence (HTRF) format. Kinase reactions were carried out in a 384-well plate format in a final volume of 20 μL. The standard enzyme reaction buffer consisted of 50 mM Tris HCL (pH: 7.4), 1 mM EGTA, 10 mM MgCl2, 2 mM DTT, 0.01% Tween-20, IGF-1R/IR kinase enzyme, poly GT peptide substrate (Perkin Elmer [Ulight Glu-Tyr (4:1)]n) and ATP [concentration equivalent to Kmapp] […] Briefly, 2.5 μL enzyme and 2.5 μL inhibitor was preincubated for 10 minutes at 23° C. followed by the addition of 2.5 μL of poly GT substrate (final concentration of 50 nM). Reaction was initiated with the addition of 2.5 μL of ATP (final concentration of 20 μM for IGF-1R assay and 10 μM for IR assay). After 1 hour incubation at 23° C., the kinase reaction was stopped with the addition of 5 μL EDTA (final concentration of 10 mM in 20 μL). Europium cryptate—labeled antiphosphotyrosine antibody PY20 (5 μL) was added (final concentration of 2 nM) and the mixture was allowed to equilibrate for 1 hour at 23° C. followed by reading the plate in an Envision plate reader.
The intensity of light emission at 665 nm was directly proportional to the level of substrate phosphorylation. The IC50 values for inhibitors were determined by a four-parameter sigmoidal curve fit (Sigma plot or Graph pad).
IGFRK and IRK enzyme used for the assay was intracellular kinase domain of human IGF-1R and human IR cloned and expressed as GST fusion proteins using the baculovirus expression system and purified using glutathione—Sepharose column.

T1 sequence (P08069 999-1274 limits assumed): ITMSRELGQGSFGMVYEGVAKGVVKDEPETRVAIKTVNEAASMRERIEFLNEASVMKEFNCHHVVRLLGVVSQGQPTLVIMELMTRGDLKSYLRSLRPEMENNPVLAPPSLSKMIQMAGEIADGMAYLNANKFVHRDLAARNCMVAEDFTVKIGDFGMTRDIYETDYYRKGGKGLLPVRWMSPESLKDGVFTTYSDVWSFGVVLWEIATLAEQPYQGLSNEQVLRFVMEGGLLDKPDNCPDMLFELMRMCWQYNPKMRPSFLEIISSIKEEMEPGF

Row | IC50 | Compound
1 | 113 nM | NC(=O)c1[nH]c2ccc(Cl)cc2c1S(=O)(=O)N1CCO[C@H](COc2ccc(-c3ccccc3C(F)(F)F)cc2)C1 [Compound 38, (S)-5-chloro-3-((2-(((2′-(trifluoromethyl)-[1,1′-biphenyl]-4-yl)oxy)methyl)morpholino)sulfonyl)-1H-indole-2-carboxamide]
2 | > 1000 nM | COc1ccccc1-c1ccccc1OC[C@@H]1CN(S(=O)(=O)c2c(C(N)=O)[nH]c3ccc(Cl)cc23)CCO1 [Compound 58, (S)-5-chloro-3-((2-(((2′-methoxy-[1,1′-biphenyl]-2-yl)oxy)methyl)morpholino)sulfonyl)-1H-indole-2-carboxamide]
3 | 11.8 nM | Cc1ccc(-c2cccc(OC[C@@H]3CN(S(=O)(=O)c4c(C(N)=O)[nH]c5ccc(Cl)cc45)CCO3)c2)cn1 [Compound 4, (S)-5-chloro-3-((2-((3-(6-methylpyridin-3-yl)phenoxy)methyl)morpholino)sulfonyl)-1H-indole-2-carboxamide]
4 | 11.2 nM | NC(=O)c1[nH]c2ccc(Cl)cc2c1S(=O)(=O)N1CCO[C@H](COc2ccc(F)c(-c3cccnc3)c2)C1 [Compound 26, (S)-5-chloro-3-((2-((4-fluoro-3-(pyridin-3-yl)phenoxy)methyl)morpholino)sulfonyl)-1H-indole-2-carboxamide]
5 | < 100 nM | COc1cc(-c2ccc(OC[C@@H]3CN(S(=O)(=O)c4c(C(N)=O)[nH]c5ccc(Cl)cc45)CCO3)cc2)ccn1 [Compound 47, (S)-5-chloro-3-((2-((4-(2-methoxypyridin-4-yl)phenoxy)methyl)morpholino)sulfonyl)-1H-indole-2-carboxamide]
6 | 13.2 nM | Cc1cc(-c2ccc(OC[C@@H]3CN(S(=O)(=O)c4c(C(N)=O)[nH]c5ccc(Cl)cc45)CCO3)cc2)cc(C)n1 [Compound 82, (S)-5-chloro-3-((2-((4-(2,6-dimethylpyridin-4-yl)phenoxy)methyl)morpholino)sulfonyl)-1H-indole-2-carboxamide]
7 | 67 nM | Cc1cc(OC[C@@H]2CN(S(=O)(=O)c3c(C(N)=O)[nH]c4ccc(Cl)cc34)CCO2)ccc1-c1ccc(Cl)nc1 [Compound 88, (S)-5-chloro-3-((2-((4-(6-chloropyridin-3-yl)-3-methylphenoxy)methyl)morpholino)sulfonyl)-1H-indole-2-carboxamide]
8 | 4.7 nM | NC(=O)c1[nH]c2ccc(Cl)cc2c1S(=O)(=O)N1CCO[C@H](COc2ccc(F)c(-c3cncnc3)c2)C1 [Compound 27, (S)-5-chloro-3-((2-((4-fluoro-3-(pyrimidin-5-yl)phenoxy)methyl)morpholino)sulfonyl)-1H-indole-2-carboxamide]
9 | > 100 nM | NC(=O)c1[nH]c2ccc(Cl)cc2c1S(=O)(=O)N1CCO[C@H](COc2cccc(-c3cccc(F)c3)c2)C1 [Compound 12, (S)-5-chloro-3-((2-(((3′-fluoro-[1,1′-biphenyl]-3-yl)oxy)methyl)morpholino)sulfonyl)-1H-indole-2-carboxamide]
10 | 293 nM | Cc1ccccc1-c1cc(OC[C@@H]2CN(S(=O)(=O)c3c(C(N)=O)[nH]c4ccc(Cl)cc34)CCO2)ccc1C [Compound 24, (S)-5-chloro-3-((2-(((2′,6-dimethyl-[1,1′-biphenyl]-3-yl)oxy)methyl)morpholino)sulfonyl)-1H-indole-2-carboxamide]
11 | > 1000 nM | NC(=O)c1[nH]c2ccc(Cl)cc2c1S(=O)(=O)N1CCO[C@H](COc2ccccc2-c2ccc(F)nc2)C1 [Compound 59, (S)-5-chloro-3-((2-((2-(6-fluoropyridin-3-yl)phenoxy)methyl)morpholino)sulfonyl)-1H-indole-2-carboxamide]
12 | > 1000 nM | NC(=O)c1[nH]c2ccc(Cl)cc2c1S(=O)(=O)N1CCO[C@H](COc2ccccc2-c2ccccc2F)C1 [Compound 62, (S)-5-chloro-3-((2-(((2′-fluoro-[1,1′-biphenyl]-2-yl)oxy)methyl)morpholino)sulfonyl)-1H-indole-2-carboxamide]
13 | > 1000 nM | NC(=O)c1[nH]c2ccc(Cl)cc2c1S(=O)(=O)N1CCO[C@H](COc2ccccc2-c2cccc(F)c2)C1 [Compound 64, (S)-5-chloro-3-((2-(((3′-fluoro-[1,1′-biphenyl]-2-yl)oxy)methyl)morpholino)sulfonyl)-1H-indole-2-carboxamide]
14 | > 1000 nM | NC(=O)c1[nH]c2ccc(Cl)cc2c1S(=O)(=O)N1CCO[C@H](COc2cncc(-c3cc(C(F)(F)F)ccc3F)c2)C1 [Compound 75]
15 | 12.1 nM | NC(=O)c1[nH]c2ccc(Cl)cc2c1S(=O)(=O)N1CCO[C@H](COc2ccc(-c3ccnc(F)c3)cc2)C1 [Compound 45, (S)-5-chloro-3-((2-((4-(2-fluoropyridin-4-yl)phenoxy)methyl)morpholino)sulfonyl)-1H-indole-2-carboxamide]
16 | 12.8 nM | NC(=O)c1[nH]c2ccc(Cl)cc2c1S(=O)(=O)N1CCO[C@H](COc2ccc(-c3ccc(F)nc3)cc2)C1 [Compound 46, (S)-5-chloro-3-((2-((4-(6-fluoropyridin-3-yl)phenoxy)methyl)morpholino)sulfonyl)-1H-indole-2-carboxamide]
17 | < 100 nM | Cc1cc(-c2cc(OC[C@@H]3CN(S(=O)(=O)c4c(C(N)=O)[nH]c5ccc(Cl)cc45)CCO3)ccc2F)ccn1 [Compound 30, (S)-5-chloro-3-((2-((4-fluoro-3-(2-methylpyridin-4-yl)phenoxy)methyl)morpholino)sulfonyl)-1H-indole-2-carboxamide]
18 | > 100 nM | COc1ccccc1-c1ccc(OC[C@@H]2CN(S(=O)(=O)c3c(C(N)=O)[nH]c4ccc(Cl)cc34)CCO2)cc1 [Compound 43, (S)-5-chloro-3-((2-(((2′-methoxy-[1,1′-biphenyl]-4-yl)oxy)methyl)morpholino)sulfonyl)-1H-indole-2-carboxamide]
19 | > 1000 nM | NC(=O)c1[nH]c2ccc(Cl)cc2c1S(=O)(=O)N1CCO[C@H](COc2ccccc2-c2cncnc2)C1 [Compound 60, (S)-5-chloro-3-((2-((2-(pyrimidin-5-yl)phenoxy)methyl)morpholino)sulfonyl)-1H-indole-2-carboxamide]
20 | 136 nM | NC(=O)c1[nH]c2ccc(Cl)cc2c1S(=O)(=O)N1CCO[C@H](COc2cc3ccccc3nn2)C1 [Compound 89, (S)-5-chloro-3-((2-((cinnolin-3-yloxy)methyl)morpholino)sulfonyl)-1H-indole-2-carboxamide]
21 | 8.7 nM | NC(=O)c1[nH]c2ccc(Cl)cc2c1S(=O)(=O)N1CCO[C@H](COc2ccc(-c3cccnc3)cc2)C1 [Compound 31, (S)-5-chloro-3-((2-((4-(pyridin-3-yl)phenoxy)methyl)morpholino)sulfonyl)-1H-indole-2-carboxamide]
22 | 43.2 nM | COc1ccc(-c2cc(OC[C@@H]3CN(S(=O)(=O)c4c(C(N)=O)[nH]c5ccc(Cl)cc45)CCO3)ccc2F)cn1 [Compound 29, (S)-5-chloro-3-((2-((4-fluoro-3-(6-methoxypyridin-3-yl)phenoxy)methyl)morpholino)sulfonyl)-1H-indole-2-carboxamide]
23 | 2.9 nM | Cc1cc(-c2cccc(OC[C@@H]3CN(S(=O)(=O)c4c(C(N)=O)[nH]c5ccc(Cl)cc45)CCO3)c2)ccn1 [Compound 19, (S)-5-chloro-3-((2-((3-(2-methylpyridin-4-yl)phenoxy)methyl)morpholino)sulfonyl)-1H-indole-2-carboxamide]
24 | > 100 nM | Cc1ccc(-c2ccc(OC[C@@H]3CN(S(=O)(=O)c4c(C(N)=O)[nH]c5ccc(Cl)cc45)CCO3)cc2)cn1 [Compound 52, (S)-5-chloro-3-((2-((4-(6-methylpyridin-3-yl)phenoxy)methyl)morpholino)sulfonyl)-1H-indole-2-carboxamide]
25 | 46.4 nM | COc1ncccc1-c1ccc(OC[C@@H]2CN(S(=O)(=O)c3c(C(N)=O)[nH]c4ccc(Cl)cc34)CCO2)cc1 [Compound 44, (S)-5-chloro-3-((2-((4-(2-methoxypyridin-3-yl)phenoxy)methyl)morpholino)sulfonyl)-1H-indole-2-carboxamide]
26 | 47.1 nM | NC(=O)c1[nH]c2ccc(Cl)cc2c1S(=O)(=O)N1CCO[C@H](COc2cccc(-c3ccccc3)n2)C1 [Compound 80, (S)-5-chloro-3-((2-(((6-phenylpyridin-2-yl)oxy)methyl)morpholino)sulfonyl)-1H-indole-2-carboxamide]
27 | 5 nM | NC(=O)c1[nH]c2ccc(Cl)cc2c1S(=O)(=O)N1CCO[C@H](COc2ccc(-c3cccnc3F)cc2)C1 [Compound 49, (S)-5-chloro-3-((2-((4-(2-fluoropyridin-3-yl)phenoxy)methyl)morpholino)sulfonyl)-1H-indole-2-carboxamide]
28 | > 1000 nM | NC(=O)c1[nH]c2ccc(Cl)cc2c1S(=O)(=O)N1CCO[C@H](COc2ccccc2-c2cccnc2)C1 [Compound 55, (S)-5-chloro-3-((2-((2-(pyridin-3-yl)phenoxy)methyl)morpholino)sulfonyl)-1H-indole-2-carboxamide]

Row | Compound | IC50
29 | (S)-5-chloro-3-((2-((5-(4-methoxyphenyl)pyridin-3-yl)oxy)methyl)morpholino)sulfonyl)-1H-indole-2-carboxamide [Compound 74] | > 1000 nM
